Tested on: α2β3γ1 GABAAR co-expressed with human UT
Assay: Patch-clamp of Iso-evoked current in CHO-UT expressing α2β3γ1 GABAAR
Format: cell-based
Details: hUII 10^−13 to 10^−7 M; Iso 10^−4 M, 2 s; −60 mV
Experimental: CHO-K1 cell lines were obtained from American Type Culture Collection (Manassas, VA, USA). The human UT stable CHO (CHO-UT) was generously provided by Dr Christophe Dubessy (Inserm, Rouen University, France) et generated by CHO electroporation with 20 µg pIRES-neo2-UT DNA and 500 µg sterile sonicated salmon sperm DNA using the EasyJect One electroporation system (Equibio, Angleur, Belgium), followed by repetitive rounds of limiting dilution of cells in G-418 (400 µg/ml) for selection. Normal or stable CHO was grown in Ham-F12 medium supplemented with 10% FBS, 1% antibiotic-antimicotic solution and 2 mM glutamine, at 37°C in a humidified incubator with an atmosphere of 5% CO2. The stable CHO-UT medium was supplemented with the antibiotic G-418 (40 µg/ml).
For transfection, cells were trypsinized (0.05%), triturated in HamF-12 containing 10% FBS media, pelleted by centrifugation, resuspended in 100 µl solution V for nucleofection by an Amaxa Nucleofector Device (Köln, Germany; set to program U-016). Experiments were performed on normal CHO or on the stable CHO-UT cells and transiently transfected with combinations of cDNA encoding α2β3γ2, α2β3γ1, α2β1γ2, α2β3γ1, α2β3, β3γ2 (4 µg of cDNA total/transfection) GABAAR subunits. Cells were seeded on 14-mm poly-L-lysine-coated glass bottom insert dishes at 5×10^5 cells in a volume of 0.5 ml/dish. […]

Sequence: ETPDCFWKYCV (disulfide) [hUII, human urotensin II, synthesized by solid phase methodology]
- Inhibitory effect on Iso-evoked current, α2β3γ1: less effective

Source: publication PMC3341351, “Down-Regulation of GABAA Receptor via Promiscuity with the Vasoactive Peptide Urotensin II Receptor. Potential Involvement in Astrocyte Plasticity” (PLoS ONE, 2012)
